These results are taken from ChEMBL document CHEMBL4619774 (J Med Chem, 2020).

Molecules are shown by their SMILES.

One assay addresses T1, Coagulation factor VII (Homo sapiens, UniProt P08709).
T1 sequence (P08709 whole entry): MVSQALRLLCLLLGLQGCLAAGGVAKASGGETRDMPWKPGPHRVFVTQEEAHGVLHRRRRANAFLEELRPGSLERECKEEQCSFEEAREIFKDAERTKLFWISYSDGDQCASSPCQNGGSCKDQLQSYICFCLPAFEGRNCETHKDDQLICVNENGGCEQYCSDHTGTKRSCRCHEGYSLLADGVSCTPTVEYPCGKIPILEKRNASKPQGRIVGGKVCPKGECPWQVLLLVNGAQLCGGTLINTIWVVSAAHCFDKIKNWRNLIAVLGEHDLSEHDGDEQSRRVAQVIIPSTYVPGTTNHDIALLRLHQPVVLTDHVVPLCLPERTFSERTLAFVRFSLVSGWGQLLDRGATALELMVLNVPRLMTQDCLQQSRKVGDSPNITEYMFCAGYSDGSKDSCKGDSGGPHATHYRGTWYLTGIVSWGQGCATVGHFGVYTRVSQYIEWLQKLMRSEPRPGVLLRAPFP
Format: single protein.

The target in the next assay is Plasminogen (Homo sapiens, UniProt P00747). The assay is classed as single protein.
The target in a further assay is Coagulation factor X (Homo sapiens, UniProt P00742). Format: single protein.
In assay [1] the target is T2, Coagulation factor XI (Homo sapiens, UniProt P03951). The experiment in a line: Inhibition of […] human plasma F11a catalytic domain expressed in Escherichia coli strain BL21(DE3) using D-Leu-Pro-Arg*Rh110-D-Pro as substrate preincubated for 60 mins followed by substrate addition and measured after 60 mins by fluorescence assay.
In a further assay the target is Complement factor D (Homo sapiens, UniProt P00746). The assay is classed as single protein.
For a further assay, the target named is Coagulation factor IX (Homo sapiens, UniProt P00740). Format: single protein.
The target in a further assay is Plasma kallikrein (Homo sapiens, UniProt P03952). The assay is classed as single protein.
Assay [2] deals with Urokinase-type plasminogen activator (Homo sapiens, UniProt P00749). The assay is classed as single protein.
The target of another assay is Prothrombin (Homo sapiens, UniProt P00734). The assay is classed as single protein.
Assay [3] deals with T2, Coagulation factor XI. In words: Inhibition of human F11a using D-Leu-Pro-Arg*Rh110-D-Pro as substrate preincubated for 60 mins followed by substrate addition and measured after 60 mins by fluorescence assay.
Assay [4] deals with Tissue-type plasminogen activator (Homo sapiens, UniProt P00750). The assay is classed as single protein.
Chain of Tissue-type plasminogen activator (P00750 whole entry): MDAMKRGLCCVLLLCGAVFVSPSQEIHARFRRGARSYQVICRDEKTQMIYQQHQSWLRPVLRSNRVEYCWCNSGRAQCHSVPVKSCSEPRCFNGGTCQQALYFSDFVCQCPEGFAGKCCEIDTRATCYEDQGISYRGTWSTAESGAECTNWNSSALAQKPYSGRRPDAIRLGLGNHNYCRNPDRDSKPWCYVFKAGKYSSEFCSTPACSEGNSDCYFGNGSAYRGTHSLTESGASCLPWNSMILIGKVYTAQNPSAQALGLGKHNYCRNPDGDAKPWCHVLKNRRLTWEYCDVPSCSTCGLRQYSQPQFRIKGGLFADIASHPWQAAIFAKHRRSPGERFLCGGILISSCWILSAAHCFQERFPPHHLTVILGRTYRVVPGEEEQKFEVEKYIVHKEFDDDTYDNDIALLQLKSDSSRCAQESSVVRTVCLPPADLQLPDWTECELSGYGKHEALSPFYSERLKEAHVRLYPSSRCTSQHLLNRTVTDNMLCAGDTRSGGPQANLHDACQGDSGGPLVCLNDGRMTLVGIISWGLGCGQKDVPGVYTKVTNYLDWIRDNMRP

Chain of Coagulation factor IX (P00740 47-191 limits assumed): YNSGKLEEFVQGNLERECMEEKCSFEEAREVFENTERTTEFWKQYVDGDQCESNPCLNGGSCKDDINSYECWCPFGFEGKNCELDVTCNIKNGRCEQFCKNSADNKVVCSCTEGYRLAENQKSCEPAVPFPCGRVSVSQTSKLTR
Chain of Coagulation factor IX (P00740 227-461 limits assumed): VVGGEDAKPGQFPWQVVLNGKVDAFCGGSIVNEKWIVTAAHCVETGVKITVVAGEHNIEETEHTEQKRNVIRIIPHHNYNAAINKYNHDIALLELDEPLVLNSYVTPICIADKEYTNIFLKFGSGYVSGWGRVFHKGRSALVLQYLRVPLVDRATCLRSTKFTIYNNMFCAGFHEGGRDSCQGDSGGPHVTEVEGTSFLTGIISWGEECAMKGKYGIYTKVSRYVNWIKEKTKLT
Chain of Plasma kallikrein (P03952 20-390 limits assumed): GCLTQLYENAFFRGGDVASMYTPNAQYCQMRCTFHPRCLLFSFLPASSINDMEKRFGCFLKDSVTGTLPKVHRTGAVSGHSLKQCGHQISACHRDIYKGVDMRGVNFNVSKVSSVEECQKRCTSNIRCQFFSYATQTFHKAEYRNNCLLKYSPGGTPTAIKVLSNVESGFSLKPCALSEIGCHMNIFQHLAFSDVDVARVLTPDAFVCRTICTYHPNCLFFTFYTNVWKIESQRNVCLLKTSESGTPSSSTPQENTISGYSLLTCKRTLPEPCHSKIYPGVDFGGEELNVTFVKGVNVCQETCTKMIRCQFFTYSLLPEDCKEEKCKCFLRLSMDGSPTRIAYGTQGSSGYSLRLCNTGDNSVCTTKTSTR
Chain of Plasma kallikrein (P03952 391-638 limits assumed): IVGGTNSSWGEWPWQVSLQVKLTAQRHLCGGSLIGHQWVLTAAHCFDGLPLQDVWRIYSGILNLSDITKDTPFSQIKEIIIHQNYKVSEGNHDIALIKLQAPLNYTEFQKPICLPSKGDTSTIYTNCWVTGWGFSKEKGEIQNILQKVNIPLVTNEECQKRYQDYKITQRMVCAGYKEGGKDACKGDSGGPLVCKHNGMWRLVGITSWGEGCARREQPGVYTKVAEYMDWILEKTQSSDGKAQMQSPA
Chain of Coagulation factor X (P00742 41-179 limits assumed): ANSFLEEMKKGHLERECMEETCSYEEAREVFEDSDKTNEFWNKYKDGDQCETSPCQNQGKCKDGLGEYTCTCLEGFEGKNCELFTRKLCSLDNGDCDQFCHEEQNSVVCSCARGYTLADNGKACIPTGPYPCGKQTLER
Chain of Coagulation factor X (P00742 235-488 limits assumed): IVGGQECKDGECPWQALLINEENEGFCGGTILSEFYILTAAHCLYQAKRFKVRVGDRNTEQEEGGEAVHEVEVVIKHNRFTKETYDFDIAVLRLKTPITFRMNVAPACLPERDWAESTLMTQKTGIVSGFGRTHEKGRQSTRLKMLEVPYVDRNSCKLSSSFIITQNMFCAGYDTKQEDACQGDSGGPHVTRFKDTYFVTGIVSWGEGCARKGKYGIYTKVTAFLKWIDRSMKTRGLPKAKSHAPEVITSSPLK
Chain of Plasminogen (P00747 97-580 limits assumed): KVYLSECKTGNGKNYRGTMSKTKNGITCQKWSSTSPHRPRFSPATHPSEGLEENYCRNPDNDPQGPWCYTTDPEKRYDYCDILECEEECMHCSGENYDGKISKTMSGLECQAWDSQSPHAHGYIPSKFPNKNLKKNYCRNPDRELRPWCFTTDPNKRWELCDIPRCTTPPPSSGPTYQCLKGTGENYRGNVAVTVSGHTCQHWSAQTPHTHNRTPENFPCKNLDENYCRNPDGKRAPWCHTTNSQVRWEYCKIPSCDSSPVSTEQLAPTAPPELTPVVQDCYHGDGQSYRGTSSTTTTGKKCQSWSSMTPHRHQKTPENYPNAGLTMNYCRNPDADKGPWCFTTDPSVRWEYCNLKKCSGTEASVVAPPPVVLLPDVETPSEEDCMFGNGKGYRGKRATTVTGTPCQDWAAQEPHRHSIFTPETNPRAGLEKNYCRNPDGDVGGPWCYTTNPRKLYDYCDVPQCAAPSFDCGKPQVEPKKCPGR
Chain of Plasminogen (P00747 581-810 limits assumed): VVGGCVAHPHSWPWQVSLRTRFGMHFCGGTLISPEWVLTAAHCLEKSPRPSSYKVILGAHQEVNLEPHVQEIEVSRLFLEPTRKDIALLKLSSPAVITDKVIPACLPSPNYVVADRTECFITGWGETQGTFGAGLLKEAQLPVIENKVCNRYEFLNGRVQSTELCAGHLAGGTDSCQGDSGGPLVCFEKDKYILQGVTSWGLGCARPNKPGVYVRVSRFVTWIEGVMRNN
T2 sequence (P03951 19-387 limits assumed): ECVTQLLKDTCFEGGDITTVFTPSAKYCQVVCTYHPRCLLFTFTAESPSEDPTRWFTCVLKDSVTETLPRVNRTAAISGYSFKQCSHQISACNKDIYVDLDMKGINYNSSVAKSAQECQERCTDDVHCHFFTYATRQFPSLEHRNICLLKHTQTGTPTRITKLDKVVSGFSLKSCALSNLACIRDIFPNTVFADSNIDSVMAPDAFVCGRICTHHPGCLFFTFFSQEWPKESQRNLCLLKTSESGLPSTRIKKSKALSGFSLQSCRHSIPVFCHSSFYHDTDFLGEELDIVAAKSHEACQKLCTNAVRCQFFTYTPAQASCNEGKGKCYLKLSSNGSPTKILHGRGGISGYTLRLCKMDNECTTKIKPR
T2 sequence (P03951 388-625 limits assumed): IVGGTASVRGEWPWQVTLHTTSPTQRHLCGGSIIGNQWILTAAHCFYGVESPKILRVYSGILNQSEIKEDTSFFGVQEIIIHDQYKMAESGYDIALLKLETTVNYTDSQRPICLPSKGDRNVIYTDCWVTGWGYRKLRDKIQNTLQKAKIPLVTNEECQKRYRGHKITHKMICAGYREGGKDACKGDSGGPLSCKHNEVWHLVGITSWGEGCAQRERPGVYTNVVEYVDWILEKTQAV
Chain of Complement factor D (P00746 whole entry): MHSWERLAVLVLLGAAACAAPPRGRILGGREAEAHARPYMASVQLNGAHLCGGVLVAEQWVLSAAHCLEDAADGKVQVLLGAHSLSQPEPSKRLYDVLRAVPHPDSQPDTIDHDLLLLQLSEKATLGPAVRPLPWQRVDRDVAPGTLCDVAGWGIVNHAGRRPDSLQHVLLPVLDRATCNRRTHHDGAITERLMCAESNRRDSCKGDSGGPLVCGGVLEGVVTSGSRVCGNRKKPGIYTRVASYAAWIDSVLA

With `CC(C)c1cc(CCOc2c(Cl)cccc2C(=O)O)cc(-c2ccc3c(c2)[C@H](N)CO3)c1`, the IC50 at Coagulation factor VII was found to be 20.5 µM; against Plasminogen, 34 µM; against Coagulation factor X, 11.1 µM; against Coagulation factor XI [1], 5490 nM; at Complement factor D it was 34.2 µM; against Coagulation factor IX, 9.6 µM. In addition, the IC50 against Plasma kallikrein amounted to 21 nM; in [2], 930 nM; against Prothrombin it was 6.22 µM; on Coagulation factor XI [3] it was 15 nM; in assay [4] it was 3.67 µM.
Turning to `CC(C)c1cc(CCOc2ccccc2C(=O)O)cc(-c2ccc3c(c2)[C@H](N)CO3)c1`, the IC50 at Coagulation factor VII came to 3.27 µM; against Plasminogen it was 0.59 µM; against Coagulation factor X, 0.24 µM; against Coagulation factor XI [1], 1190 nM; against Complement factor D it was 1.32 µM; on Coagulation factor IX, 0.04 µM. Besides, the IC50 against Plasma kallikrein came to 25 nM; in assay [2], 20 nM; on Prothrombin, 0.05 µM; against Coagulation factor XI [3] it was 12 nM; in [4], 0.09 µM.
Take `Cc1cccc(C(=O)O)c1OCCc1cc(-c2ccc3c(c2)[C@H](N)CO3)cc(C(C)C)c1`: the IC50 on Coagulation factor VII is 45.1 µM; against Plasminogen, over 100 µM; on Coagulation factor X, 12.5 µM; against Coagulation factor XI [1], 6620 nM; against Complement factor D it was over 100 µM; on Coagulation factor IX it was 11.3 µM. Besides, the IC50 was 41 nM against Plasma kallikrein; 2480 nM in assay [2]; 9.82 µM at Prothrombin; 17 nM at Coagulation factor XI [3]; 4.13 µM in assay [4].
For the compound `COc1cccc(C(=O)O)c1OCCc1cc(-c2ccc3c(c2)[C@H](N)CO3)cc(C(C)C)c1`, the IC50 is 28.3 µM at Coagulation factor VII; 30.8 µM on Plasminogen; 6.21 µM against Coagulation factor X; 240 nM at Coagulation factor XI [1]; 17.5 µM against Complement factor D; 10.2 µM on Coagulation factor IX. In addition, the half-inhibitory concentration (IC50) stood at 9 nM against Plasma kallikrein; 400 nM in [2]; 9.09 µM at Prothrombin; 3 nM against Coagulation factor XI [3]; 2.2 µM in [4].
For the compound `NC1COc2ccc(C(=O)N3C[C@@H](c4ccccc4)C[C@H]3C(=O)Nc3cccc(Cl)c3)cc21` (mixture of isomers), the IC50 is 1200 nM against Plasma kallikrein and 970 nM against Coagulation factor XI [3].
As for `COc1cccc(C(=O)O)c1OCC(O)c1cc(-c2ccc3c(c2)[C@H](N)CO3)cc(C(C)C)c1` (mixture of isomers), the IC50 against Coagulation factor VII was determined as 12.5 µM; at Plasminogen, 46.2 µM; against Coagulation factor X, 16.3 µM; against Coagulation factor XI [1], 8110 nM; at Complement factor D, 27.2 µM; against Coagulation factor IX, 15.5 µM. Besides, the 50% inhibitory concentration (IC50) at Plasma kallikrein stood at 160 nM; in assay [2] it was 1130 nM; on Prothrombin, 7.43 µM; against Coagulation factor XI [3], 40 nM; in assay [4], 6.68 µM.
For the compound `CC(C)(O)c1cc(COc2ccccc2CC(=O)O)cc(-c2ccc3c(c2)CNCC3)c1`, the half-maximal inhibitory concentration (IC50) is 430 nM on Coagulation factor XI [1], 0.23 µM at Complement factor D, 330 nM against Plasma kallikrein and 100 nM at Coagulation factor XI [3].
As for `CC(C)c1cc(-c2ccc3c(c2)[C@H](N)CO3)cc(C(O)Cn2ccc3cccc(C(=O)O)c32)c1` (mixture of isomers), the IC50 against Coagulation factor VII was 16.7 µM; against Plasminogen it was 17.4 µM; against Coagulation factor X, 11.2 µM; against Coagulation factor XI [1], 45 nM; on Complement factor D, 8.92 µM; at Coagulation factor IX, 13.4 µM. For the same compound, the IC50 at Plasma kallikrein is 16 nM; in [2], 1420 nM; against Prothrombin, 7.21 µM; at Coagulation factor XI [3], under 0.7 nM; in [4], 3.7 µM.
With `CC(C)c1cc(CCNc2ccccc2C(=O)O)cc(-c2ccc3c(c2)[C@H](N)CO3)c1`, inhibition at Coagulation factor XI [3] was half-maximal at 2520 nM (IC50).
For `O=C(O)Cc1ccccc1OCc1cccc(-c2ccc3c(c2)CNCC3)c1`, the IC50 against Complement factor D is 0.8 µM; against Coagulation factor XI [3], 400 nM.
Consider `NC1COc2ccc(-c3cccc(COc4ccccc4CC(=O)O)c3)cc21` (racemic), for which the IC50 at Complement factor D is 0.34 µM; against Plasma kallikrein it was 1300 nM; at Coagulation factor XI [3], 200 nM.

As usually defined, the IC50 is the concentration that gives 50% inhibition. Low readings indicate inhibition by little substance, high ones a need for much substance.
